Reference: publication PMC8003975 (Cancers, 2021)
Values after ≈ are worked out from the molar mass of the structure shown.

System: Cal27 cells
Test: Cytotoxicity assay (Cell Counting Kit-8)
Type: cell-based
Details: Homo sapiens, CAL-27, 48 h
Text: Normal oral keratinocytes (NOK) (kindly gifted by Dr. Karl Mugner, Tuffs University, Boston, MA, USA) were maintained in Keratinocyte SFM medium supplemented with EGF and bovine pituitary extract (GIBCO, Life Technologies, Berkeley, MO, USA) and 1% penicillin/ streptomycin. HNC cell line Cal27 was purchased from the ATCC. JHU029 (JHU-29) and JHU022 (JHU-22) cell lines were procured from the Johns Hopkins University (Baltimore, MD, USA). The Cal27 and JHU022 cells were maintained in Dulbecco’s Modified Eagle Medium (DMEM), and JHU029 cells were in RPMI1640 (Sigma, St. Louis, MO, USA) media supplemented with 10% FBS and 1% penicillin/ streptomycin (Sigma-Aldrich, St. Louis, MO, USA) in a humidified CO2 incubator. The cell lines are routinely tested in our laboratory to rule out mycoplasma contamination using a commercial MycoAlert™ Mycoplasma Detection kit (Lonza, Morrisville, NC, USA). Cal27 cells are tongue origin and JHU022 and JHU029 cells are from laryngx origin.
Cal27, JHU029, JHU022 and NOK were seeded in 96 well-plate (5000 cells/well) and cells were treated with different concentration of M-I for 48 h. There were untreated control and DMSO treated vehicle control group for comparison. Cytotoxicity assay was performed using Cell Counting Kit-8 (Dojindo Molecular Technology, Rockville, MD, USA) according to manufacturer instruction.

## CC(C)=CC(O)CC(C)[C@H]1CC[C@@]2(C)[C@@H]3[C@@H](O)C=C4[C@@H](CC[C@H](O)C4(C)C)[C@]3(C=O)CC[C@]12C (stereo partly drawn) [M-I, (3S, 7S, 8S, 9R, 10R, 13R, 14S, 17R) 3,7-dihydroxy-17-(4-hydroxy-6-methylhept-5-en-2-yl)-4,4,13,14-tetramethyl-2,3,7,8,10,11, 12,15,16,17-decahydro-1H-cyclopenta[a]phenanthrene-9-carbaldehyde]
  IC50: 7 mg/L (≈ 14.8 µM)
